Common to all, as to format: biochemical
One experiment concerns the target PLK2 (Homo sapiens, UniProt Q9NYY3). Briefly: PLK TR-FRET peptide assay, PLK2. The settings on record: for pIC50: read-out: Plk2 IC50.
In another experiment the target is PLK3 (Homo sapiens, UniProt Q9H4B4). Briefly: PLK TR-FRET peptide assay, PLK3. The following applies: GST-PLK3, 15 min reaction, read-out: Plk3 IC50. For orientation: In TR-FRET formats the signal depends on donor and acceptor labels being close together.
PLK3, sequence (Q9H4B4 whole entry): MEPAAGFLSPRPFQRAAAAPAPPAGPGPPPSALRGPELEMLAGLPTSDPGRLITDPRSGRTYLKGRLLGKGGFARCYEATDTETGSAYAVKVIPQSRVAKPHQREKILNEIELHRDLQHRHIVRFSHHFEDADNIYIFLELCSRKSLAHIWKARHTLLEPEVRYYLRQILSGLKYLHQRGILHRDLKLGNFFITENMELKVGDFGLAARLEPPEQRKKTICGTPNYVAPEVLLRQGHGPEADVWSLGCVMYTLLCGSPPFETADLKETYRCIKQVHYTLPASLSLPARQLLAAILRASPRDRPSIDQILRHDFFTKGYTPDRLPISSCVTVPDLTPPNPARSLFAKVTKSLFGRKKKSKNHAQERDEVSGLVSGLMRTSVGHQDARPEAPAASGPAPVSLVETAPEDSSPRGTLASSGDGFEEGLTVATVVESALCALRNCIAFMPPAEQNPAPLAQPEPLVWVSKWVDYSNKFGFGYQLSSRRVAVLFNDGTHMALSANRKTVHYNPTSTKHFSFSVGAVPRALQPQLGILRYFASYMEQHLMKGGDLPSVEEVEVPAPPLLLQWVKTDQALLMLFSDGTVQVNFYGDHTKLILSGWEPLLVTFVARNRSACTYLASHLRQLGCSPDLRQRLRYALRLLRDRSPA
For another experiment, the target named is PLK1 (Homo sapiens, UniProt P53350). The experiment can be described thus: PLK TR-FRET peptide assay, PLK1. The settings on record: GST-PLK1, 60 min reaction.
PLK1, sequence (P53350 whole entry): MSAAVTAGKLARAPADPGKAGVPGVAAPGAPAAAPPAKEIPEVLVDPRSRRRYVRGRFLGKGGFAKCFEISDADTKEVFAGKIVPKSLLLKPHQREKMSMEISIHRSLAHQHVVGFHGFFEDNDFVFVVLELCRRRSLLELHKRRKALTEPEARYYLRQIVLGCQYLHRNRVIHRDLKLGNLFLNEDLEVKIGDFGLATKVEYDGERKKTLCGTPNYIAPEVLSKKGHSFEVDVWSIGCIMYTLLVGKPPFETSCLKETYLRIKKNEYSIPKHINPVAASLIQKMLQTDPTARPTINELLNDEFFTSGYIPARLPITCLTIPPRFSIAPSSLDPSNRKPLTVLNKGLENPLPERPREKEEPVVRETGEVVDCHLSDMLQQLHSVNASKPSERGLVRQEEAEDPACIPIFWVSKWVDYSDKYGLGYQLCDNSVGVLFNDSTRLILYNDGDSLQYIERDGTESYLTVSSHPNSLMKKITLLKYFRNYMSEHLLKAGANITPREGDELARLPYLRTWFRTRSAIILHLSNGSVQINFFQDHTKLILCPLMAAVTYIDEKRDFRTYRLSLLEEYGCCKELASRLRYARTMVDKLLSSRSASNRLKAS
[1] abbreviates: PLK TR-FRET peptide assay, GST-PLK2, 60 min reaction.

Each structure is given as a SMILES string. pIC50: −log10 of the molar value. Where two headings read alike, the source gives them in different places. Some results are limits rather than exact numbers.

As a reminder, the pIC50 is the IC50 on a negative log10 scale, so that one unit is a factor of ten.

PLK2, sequence (Q9NYY3 whole entry): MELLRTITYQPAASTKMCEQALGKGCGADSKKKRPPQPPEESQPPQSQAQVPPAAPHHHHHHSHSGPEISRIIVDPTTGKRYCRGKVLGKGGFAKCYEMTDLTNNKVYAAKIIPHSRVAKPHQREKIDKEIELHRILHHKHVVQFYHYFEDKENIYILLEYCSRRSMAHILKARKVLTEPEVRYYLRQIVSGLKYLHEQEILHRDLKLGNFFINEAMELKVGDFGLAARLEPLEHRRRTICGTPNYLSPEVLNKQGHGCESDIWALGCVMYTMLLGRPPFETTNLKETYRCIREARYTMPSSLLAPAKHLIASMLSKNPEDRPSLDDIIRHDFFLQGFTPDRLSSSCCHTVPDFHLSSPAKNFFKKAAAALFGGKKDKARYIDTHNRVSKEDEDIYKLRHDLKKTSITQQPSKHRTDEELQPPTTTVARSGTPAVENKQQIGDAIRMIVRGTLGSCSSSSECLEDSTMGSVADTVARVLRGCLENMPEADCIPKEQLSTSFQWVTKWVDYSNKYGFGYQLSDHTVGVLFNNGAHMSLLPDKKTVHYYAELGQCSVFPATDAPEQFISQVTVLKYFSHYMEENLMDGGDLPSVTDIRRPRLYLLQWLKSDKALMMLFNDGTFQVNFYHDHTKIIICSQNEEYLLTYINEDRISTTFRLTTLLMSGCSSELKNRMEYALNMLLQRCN

Regarding `CC[C@]12CCCCN1c1nc(-n3ccnc3-c3cc(F)c(F)c(F)c3)ncc1N(C)C2=O` [Example 267, (R)-6a-ethyl-5-methyl-2-(2-(3,4,5-trifluorophenyl)-1H-imidazol-1-yl)-7,8,9,10-tetrahydro-5H-pyrido[2,1-h]pteridin-6(6aH)-one], the negative logarithm of the IC50 (pIC50) on PLK2 (setting [1]), at PLK3 and on PLK1 was under 4.30 in each case.
Take `CC[C@@H]1C(=O)N(C)c2cnc(-n3ccnc3C(F)(F)F)nc2N1C1CCCC1` [Example 352, (R)-8-cyclopentyl-7-ethyl-5-methyl-2-(2-(trifluoromethyl)-1H-imidazol-1-yl)-7,8-dihydropteridin-6(5H)-one]: the pIC50 at PLK2 (setting [1]) was over 6.00; at PLK3 it was 5.00 to 6.00; at PLK1, 5.00 to 6.00.
Consider `CC[C@@H]1C(=O)N(C)c2cnc(-c3ccncc3NS(=O)(=O)c3ccccc3)nc2N1C1CCCC1` [Example 127, (R)—N-(4-(8-cyclopentyl-7-ethyl-5-methyl-6-oxo-5,6,7,8-tetrahydropteridin-2-yl)pyridin-3-yl)benzenesulfonamide], for which the figures for the pIC50 on PLK2 (setting [1]), on PLK3 and against PLK1 were 4.30 to 5.00, under 4.30 and 4.30 to 5.00, respectively.
`CC[C@@H]1C(=O)N(C)c2cnc(-c3ccncc3CNC(=O)OC(C)(C)C)nc2N1C(C)C` [Example 107, (R)-tert-butyl (4-(7-ethyl-8-isopropyl-5-methyl-6-oxo-5,6,7,8-tetrahydropteridin-2-yl)pyridin-3-yl)methylcarbamate]: the pIC50 on PLK2 (setting [1]), at PLK3 and against PLK1 was under 4.30 each time.
Regarding `[2H]C([2H])([2H])N1C(=O)C(C([2H])([2H])C([2H])([2H])[2H])N(C([2H])(C([2H])([2H])[2H])C([2H])([2H])[2H])c2nc(-c3c[nH]nc3-c3ccccc3)ncc21` (stereo not shown) [Example 165, 7-perdeuteroethyl-8-perdeuteroisopropyl-5-trideuteromethyl-2-(3-phenyl-1H-pyrazol-4-yl)-7,8-dihydropteridin-6(5H)-one], the pIC50 was over 6.00 at PLK2 (setting [1]), 5.00 to 6.00 at PLK3 and over 6.00 on PLK1.
For `CC[C@@H]1C(=O)N(C)c2cnc(-c3sc(Br)nc3-c3ccc(F)cc3)nc2N1C(C)C` [Example 347, (R)-2-(2-bromo-4-(4-fluorophenyl)thiazol-5-yl)-7-ethyl-8-isopropyl-5-methyl-7,8-dihydropteridin-6(5H)-one], the pIC50 was over 6.00 at PLK2 (setting [1]), under 4.30 at PLK3 and under 4.30 against PLK1.
Take `CC[C@@]12CCCN1c1nc(-n3ccnc3-c3cccc(-n4cncn4)c3)ncc1N(C)C2=O` [Example 273, (S)-2-(2-(3-(1H-1,2,4-triazol-1-yl)phenyl)-1H-imidazol-1-yl)-6a-ethyl-5-methyl-6a,7,8,9-tetrahydropyrrolo[2,1-h]pteridin-6(5H)-one]: the negative-log IC50 (pIC50) is over 6.00 at PLK2, under 4.30 at PLK3 and 4.30 to 5.00 against PLK1.
On to `CC[C@@H]1C(=O)N(C)c2cnc(-c3ccncc3CNC(=O)c3ccccc3)nc2N1C1CCCC1` [Example 123, (R)—N-((4-(8-cyclopentyl-7-ethyl-5-methyl-6-oxo-5,6,7,8-tetrahydropteridin-2-yl)pyridin-3-yl)methyl)benzamide], for which the pIC50 was 4.30 to 5.00 at PLK2 (setting [1]), under 4.30 at PLK3 and 4.30 to 5.00 against PLK1.
For `CC[C@@H]1C(=O)N(C)c2cnc(-c3ccncc3NC(=O)c3ccccc3)nc2N1C1CCCC1` [Example 102, (R)—N-(4-(8-cyclopentyl-7-ethyl-5-methyl-6-oxo-5,6,7,8-tetrahydropteridin-2-yl)pyridin-3-yl)benzamide], the negative logarithm of the IC50 (pIC50) was over 6.00 at PLK2 (setting [1]), 5.00 to 6.00 at PLK3 and 5.00 to 6.00 on PLK1.
On to `CC[C@@H]1C(=O)N(C)c2cnc(-n3ccnc3-c3ccc(F)c(F)c3)nc2N1C1CCOC1` (stereo partly drawn) [Example 191, (7R)-2-(2-(3,4-difluorophenyl)-1H-imidazol-1-yl)-7-ethyl-5-methyl-8-(tetrahydrofuran-3-yl)-7,8-dihydropteridin-6(5H)-one], for which the pIC50 at PLK2 (setting [1]) is over 6.00; on PLK3, 4.30 to 5.00; at PLK1, 5.00 to 6.00.
Take `CC[C@@H]1C(=O)N(C)c2cnc(-c3cncnc3-c3ccc(C(F)(F)F)cc3)nc2N1C(C)C` [Example 168, (R)-7-ethyl-8-isopropyl-5-methyl-2-(4-(4-(trifluoromethyl)phenyl)pyrimidin-5-yl)-7,8-dihydropteridin-6(5H)-one]: the negative-log IC50 (pIC50) on PLK2 (setting [1]) is 4.30 to 5.00; on PLK3, under 4.30; on PLK1, 4.30 to 5.00.
Take `CC[C@@H]1C(=O)N(C)c2cnc(-c3nccnc3-c3ccc(C(F)(F)F)cc3)nc2N1C(C)C` [Example 175, (R)-7-ethyl-8-isopropyl-5-methyl-2-(3-(4-(trifluoromethyl)phenyl)pyrazin-2-yl)-7,8-dihydropteridin-6(5H)-one]: the pIC50 is 5.00 to 6.00 at PLK2 (setting [1]), 4.30 to 5.00 at PLK3 and 5.00 to 6.00 against PLK1.
For `[2H]C([2H])([2H])N1C(=O)C(C([2H])([2H])C([2H])([2H])[2H])N(C([2H])(C([2H])([2H])[2H])C([2H])([2H])[2H])c2nc(-n3ccnc3-c3ccc(F)c(F)c3)ncc21` (stereo not shown) [Example 169, 2-(2-(3,4-difluorophenyl)-1H-imidazol-1-yl)-7-perdeuteroethyl-8-perdeuteroisopropyl-5-trideuteromethyl-7,8-dihydropteridin-6(5H)-one], the negative logarithm of the IC50 (pIC50) is over 6.00 at PLK2 (setting [1]), 4.30 to 5.00 on PLK3 and 5.00 to 6.00 against PLK1.
The like results for `CC[C@@H]1C(=O)N(C)c2cnc(N3CCN(c4cnccn4)CC3)nc2N1C1CCCC1` [Example 223, (R)-8-cyclopentyl-7-ethyl-5-methyl-2-(4-(pyrazin-2-yl)piperazin-1-yl)-7,8-dihydropteridin-6(5H)-one] were, in that order, 5.00 to 6.00, under 4.30 and 5.00 to 6.00.
In the same order, the values of `CC[C@@H]1C(=O)N(C)c2cnc(-n3ccnc3-c3ccc(C(F)(F)F)cc3)nc2N1C1CCC1` [Example 171, (R)-8-cyclobutyl-7-ethyl-5-methyl-2-(2-(4-(trifluoromethyl)phenyl)-1H-imidazol-1-yl)-7,8-dihydropteridin-6(5H)-one] are over 6.00, under 4.30 and 4.30 to 5.00.
In the same order, the values of `CC[C@@]12CCCN1c1nc(-n3ccnc3-c3cccc(-c4cccnc4)c3)ncc1N(C)C2=O` [Example 272, (S)-6a-ethyl-5-methyl-2-(2-(3-(pyridin-3-yl)phenyl)-1H-imidazol-1-yl)-6a,7,8,9-tetrahydropyrrolo[2,1-h]pteridin-6(5H)-one] are over 6.00, 4.30 to 5.00 and 4.30 to 5.00.
For the compound `CC[C@@H]1C(=O)N(C)c2cnc(-n3ccnc3-c3ccc(F)cc3)nc2N1C1CCC1` [Example 50, (R)-8-cyclobutyl-7-ethyl-2-(2-(4-fluorophenyl)-1H-imidazol-1-yl)-5-methyl-7,8-dihydropteridin-6(5H)-one], the results for the pIC50 on PLK2 (setting [1]), on PLK3 and at PLK1 were over 6.00, 5.00 to 6.00 and 5.00 to 6.00, respectively.
With `CC[C@@H]1C(=O)N(C)c2cnc(-n3ccnc3N3CCCC3=O)nc2N1C1CCCC1` [Example 82, (R)-8-cyclopentyl-7-ethyl-5-methyl-2-(2-(2-oxopyrrolidin-1-yl)-1H-imidazol-1-yl)-7,8-dihydropteridin-6(5H)-one], the negative logarithm of the IC50 (pIC50) at PLK2 (setting [1]) is 5.00 to 6.00; at PLK3 it was 4.30 to 5.00; against PLK1, 5.00 to 6.00.
Take `CC[C@@H]1C(=O)N(C)c2cnc(-n3ccnc3-c3ccc(F)cc3F)nc2N1C1CCOC1` (stereo partly drawn) [Example 268, (7R)-2-(2-(2,4-difluorophenyl)-1H-imidazol-1-yl)-7-ethyl-5-methyl-8-(tetrahydrofuran-3-yl)-7,8-dihydropteridin-6(5H)-one]: the pIC50 at PLK2 (setting [1]) is over 6.00; on PLK3, 5.00 to 6.00; against PLK1, 5.00 to 6.00.
As for `CC[C@@H]1C(=O)N(C)c2cnc(-n3ccnc3N3CCCC3)nc2N1C1CCCC1` [Example 86, (R)-8-cyclopentyl-7-ethyl-5-methyl-2-(2-(pyrrolidin-1-yl)-1H-imidazol-1-yl)-7,8-dihydropteridin-6(5H)-one], the figures for the negative-log IC50 (pIC50) at PLK2 (setting [1]), on PLK3 and on PLK1 were 5.00 to 6.00, under 4.30 and 4.30 to 5.00, respectively.
The like results for `CC[C@@]12CCCN1c1nc(-n3ccnc3-c3cccc(-n4cccn4)c3)ncc1N(C)C2=O` [Example 276, (S)-2-(2-(3-(1H-pyrazol-1-yl)phenyl)-1H-imidazol-1-yl)-6a-ethyl-5-methyl-6a,7,8,9-tetrahydropyrrolo[2,1-h]pteridin-6(5H)-one] were, in that order, over 6.00, under 4.30 and 4.30 to 5.00.
In the case of `CC[C@@]12CCCCN1c1nc(-n3ccnc3-c3cc(F)c(F)c(F)c3)ncc1N(C)C2=O` [Example 266, (S)-6a-ethyl-5-methyl-2-(2-(3,4,5-trifluorophenyl)-1H-imidazol-1-yl)-7,8,9,10-tetrahydro-5H-pyrido[2,1-h]pteridin-6(6aH)-one], the negative-log IC50 (pIC50) at PLK2 (setting [1]) is over 6.00; on PLK3 it was under 4.30; at PLK1, under 4.30. Also, the “relative PLK2 activity of the enantiomers” value at PLK2 (compared with the opposite enantiomer) was “more active compound”.
As for `CCC12CCCCN1c1nc(-n3ccnc3-c3cccc(F)c3F)ncc1N(C)C2=O` (racemic) [Example 248, (+/−) 2-(2-(2,3-difluorophenyl)-1H-imidazol-1-yl)-6a-ethyl-5-methyl-7,8,9,10-tetrahydro-5H-pyrido[2,1-h]pteridin-6(6aH)-one], the pIC50 at PLK2 (setting [1]) is over 6.00; at PLK3, 4.30 to 5.00; against PLK1, 5.00 to 6.00.
The like results for `CC[C@@]12CCCN1c1nc(-c3cncnc3-c3ccccc3)ncc1N(C)C2=O` [Example 222, (S)-6a-ethyl-5-methyl-2-(4-phenylpyrimidin-5-yl)-6a,7,8,9-tetrahydropyrrolo[2,1-h]pteridin-6(5H)-one] were, in that order, 5.00 to 6.00, 4.30 to 5.00 and 4.30 to 5.00.

These data come from patent US8541418B2, “Inhibitors of polo-like kinase” (Elan Pharmaceutical, Inc., priority 2009, dated 2013).
